Tested on: Transport facilitation protein genes
Test: DNA chip mRNA expression in yeast, transport facilitation protein genes (Table 5)
Type: cell-based, Saccharomyces cerevisiae S288C
Experimental: Yeast (Saccharomyces cerevisiae S288C (α SUC2mal mel gap2 CUP1)) were incubated at 25° C. on YPD medium (yeast extract 1%, polypepton 2%, glucose 2%). One of toxic chemical substances was added to the cells at logarithmic growth phase, and the cells were further incubated for two hours. Cells were cultured without any chemical substance in the same condition, and were used as control. Concentrations of the chemical substances were defined to inhibit the growth of the yeast but not lead to death.
After completion of the incubation, the culture was centrifuged to collect the cells. To the cells, sodium acetate buffer (50 mM sodium acetate, 10 mM EDTA, 1% SDS) was added, and the mixture was shaken at 65° C. for five minutes, followed by returning to room temperature, and obtaining the supernatant, of which the procedures were repeated two times. To the supernatant, ½ amount of a solution of phenol/chloroform was added, and the mixture was centrifuged to give a supernatant, which was added with an equal amount of chloroform, and the mixture was centrifuged to give a supernatant. To the supernatant, an equal amount of isopropanol containing 0.3 M sodium acetate was added, and the mixture was allowed to stand at room temperature for 30 minutes, after which the mixture was centrifuged to give a sediment of the whole RNAs. Seventy % ethanol was added to the sediment, and the mixture was again centrifuged to give a sediment, which was then dried and dissolved in water. mRNA was isolated from the whole RNAs as followings. In view of the fact that a poly A chain is attached to the 3′ terminus of mRNA, a polynucleotide having a poly T structure which was immobilized on the surface of latex beads was used to trap the mRNA, and then the mRNA was washed and eluted with spine column (Oligotex-dT30<Super>mRNA Purification Kit, Takara). Reverse transcription of the mRNA was conducted with a reverse transcriptase (Super Script II Reverse Transcriptase; catalogue No. 18064-014, GibcoBRL) using fluorescence-labeled nucleotides to give cDNAs that were introduced with Cy3-dUTP or Cy5-dUTP during the reverse transcription.
The labeled cDNAs were dissolved in TE buffer (10mM Tris-HCl/1 mM EDTA, pH8.0), and the solution was dropped on the DNA chip containing the whole genes of yeast (DNA Chip Research Inc. Japan) so that the cDNAs were hybridized on the DNA chip at 65° C. for over 12 hours. The fluoresces intensity of the DNA chip was read with a scanner, and the ratio relative to the fluorescence intensity resulting from the absence of chemical substance was estimated as the following, which is shown in Tables 1 to 9: […]

**Q.** With [Cl][Cd][Cl] [(2), CdCl2] as the compound, how does the “The level of expressed mRNA in the presence of chemical substance/The level of expressed mRNA in the absence of chemical substance” value (yeast gene YGR224W) read?
**A.** Its value is 1.2.

**Q.** What about the “The level of expressed mRNA in the presence of chemical substance/The level of expressed mRNA in the absence of chemical substance” value (yeast gene YGR260W) of the same compound?
**A.** Its value is 0.7.

**Q.** What about the “The level of expressed mRNA in the presence of chemical substance/The level of expressed mRNA in the absence of chemical substance” value (yeast gene YGR281W) of the same compound?
**A.** Its value is 1.0.

**Q.** What about the “The level of expressed mRNA in the presence of chemical substance/The level of expressed mRNA in the absence of chemical substance” value (yeast gene YHL035C) of the same compound?
**A.** Its value is 1.3.

**Q.** And the “The level of expressed mRNA in the presence of chemical substance/The level of expressed mRNA in the absence of chemical substance” value (yeast gene YHL040C)?
**A.** The value was 4.9.

**Q.** And the “The level of expressed mRNA in the presence of chemical substance/The level of expressed mRNA in the absence of chemical substance” value (yeast gene YHL047C)?
**A.** The value was 4.4.

**Q.** What about the “The level of expressed mRNA in the presence of chemical substance/The level of expressed mRNA in the absence of chemical substance” value (yeast gene YHR026W) of the same compound?
**A.** Its value is 1.0.

**Q.** What about the “The level of expressed mRNA in the presence of chemical substance/The level of expressed mRNA in the absence of chemical substance” value (yeast gene YHR092C) of the same compound?
**A.** The value was 1.0.

**Q.** What about the “The level of expressed mRNA in the presence of chemical substance/The level of expressed mRNA in the absence of chemical substance” value (yeast gene YHR094C) of the same compound?
**A.** The value was 1.2.

**Q.** And the “The level of expressed mRNA in the presence of chemical substance/The level of expressed mRNA in the absence of chemical substance” value (yeast gene YHR175W)?
**A.** The value was 2.0.

**Q.** What about the “The level of expressed mRNA in the presence of chemical substance/The level of expressed mRNA in the absence of chemical substance” value (yeast gene YIL006W) of the same compound?
**A.** The value was 1.1.

**Q.** And the “The level of expressed mRNA in the presence of chemical substance/The level of expressed mRNA in the absence of chemical substance” value (yeast gene YIL022W)?
**A.** The value was 0.7.

**Q.** What about the “The level of expressed mRNA in the presence of chemical substance/The level of expressed mRNA in the absence of chemical substance” value (yeast gene YIL056W) of the same compound?
**A.** Its value is 0.9.

**Q.** And the “The level of expressed mRNA in the presence of chemical substance/The level of expressed mRNA in the absence of chemical substance” value (yeast gene YIL088C)?
**A.** The value was 2.1.

**Q.** And the “The level of expressed mRNA in the presence of chemical substance/The level of expressed mRNA in the absence of chemical substance” value (yeast gene YJL034W)?
**A.** Its value is 1.7.

**Q.** And the “The level of expressed mRNA in the presence of chemical substance/The level of expressed mRNA in the absence of chemical substance” value (yeast gene YJL212C)?
**A.** The value was 3.2.

**Q.** And the “The level of expressed mRNA in the presence of chemical substance/The level of expressed mRNA in the absence of chemical substance” value (yeast gene YJL219W)?
**A.** The value was 2.5.

**Q.** And the “The level of expressed mRNA in the presence of chemical substance/The level of expressed mRNA in the absence of chemical substance” value (yeast gene YJR077C)?
**A.** The value was 1.1.

**Q.** And the “The level of expressed mRNA in the presence of chemical substance/The level of expressed mRNA in the absence of chemical substance” value (yeast gene YJR106W)?
**A.** Its value is 3.8.

**Q.** What about the “The level of expressed mRNA in the presence of chemical substance/The level of expressed mRNA in the absence of chemical substance” value (yeast gene YJR121W) of the same compound?
**A.** Its value is 1.1.

**Q.** And the “The level of expressed mRNA in the presence of chemical substance/The level of expressed mRNA in the absence of chemical substance” value (yeast gene YKL016C)?
**A.** Its value is 1.3.

**Q.** What about the “The level of expressed mRNA in the presence of chemical substance/The level of expressed mRNA in the absence of chemical substance” value (yeast gene YKL146W) of the same compound?
**A.** The value was 1.3.

**Q.** And the “The level of expressed mRNA in the presence of chemical substance/The level of expressed mRNA in the absence of chemical substance” value (yeast gene YKR039W)?
**A.** Its value is 3.5.

**Q.** What about the “The level of expressed mRNA in the presence of chemical substance/The level of expressed mRNA in the absence of chemical substance” value (yeast gene YKR067W) of the same compound?
**A.** The value was 2.6.

**Q.** What about the “The level of expressed mRNA in the presence of chemical substance/The level of expressed mRNA in the absence of chemical substance” value (yeast gene YLL028W) of the same compound?
**A.** Its value is 0.9.

**Q.** What about the “The level of expressed mRNA in the presence of chemical substance/The level of expressed mRNA in the absence of chemical substance” value (yeast gene YLR081W) of the same compound?
**A.** The value was 0.8.

**Q.** And the “The level of expressed mRNA in the presence of chemical substance/The level of expressed mRNA in the absence of chemical substance” value (yeast gene YLR295C)?
**A.** Its value is 1.1.

**Q.** What about the “The level of expressed mRNA in the presence of chemical substance/The level of expressed mRNA in the absence of chemical substance” value (yeast gene YLR348C) of the same compound?
**A.** Its value is 4.5.

**Q.** What about the “The level of expressed mRNA in the presence of chemical substance/The level of expressed mRNA in the absence of chemical substance” value (yeast gene YLR378C) of the same compound?
**A.** Its value is 0.9.

**Q.** What about the “The level of expressed mRNA in the presence of chemical substance/The level of expressed mRNA in the absence of chemical substance” value (yeast gene YMR011W) of the same compound?
**A.** The value was 1.0.

**Q.** And the “The level of expressed mRNA in the presence of chemical substance/The level of expressed mRNA in the absence of chemical substance” value (yeast gene YMR162C)?
**A.** The value was 1.1.

**Q.** And the “The level of expressed mRNA in the presence of chemical substance/The level of expressed mRNA in the absence of chemical substance” value (yeast gene YMR203W)?
**A.** The value was 0.7.

**Q.** What about the “The level of expressed mRNA in the presence of chemical substance/The level of expressed mRNA in the absence of chemical substance” value (yeast gene YNL055C) of the same compound?
**A.** Its value is 1.8.

**Q.** What about the “The level of expressed mRNA in the presence of chemical substance/The level of expressed mRNA in the absence of chemical substance” value (yeast gene YNR072W) of the same compound?
**A.** The value was 1.5.

**Q.** What about the “The level of expressed mRNA in the presence of chemical substance/The level of expressed mRNA in the absence of chemical substance” value (yeast gene YOL119C) of the same compound?
**A.** The value was 4.8.

**Q.** What about the “The level of expressed mRNA in the presence of chemical substance/The level of expressed mRNA in the absence of chemical substance” value (yeast gene YOL156W) of the same compound?
**A.** The value was 0.7.

**Q.** What about the “The level of expressed mRNA in the presence of chemical substance/The level of expressed mRNA in the absence of chemical substance” value (yeast gene YOL163W) of the same compound?
**A.** Its value is 3.2.

**Q.** What about the “The level of expressed mRNA in the presence of chemical substance/The level of expressed mRNA in the absence of chemical substance” value (yeast gene YOR035C) of the same compound?
**A.** The value was 1.2.

**Q.** And the “The level of expressed mRNA in the presence of chemical substance/The level of expressed mRNA in the absence of chemical substance” value (yeast gene YOR130C)?
**A.** Its value is 1.7.

**Q.** And the “The level of expressed mRNA in the presence of chemical substance/The level of expressed mRNA in the absence of chemical substance” value (yeast gene YOR153W)?
**A.** The value was 0.9.

**Q.** What about the “The level of expressed mRNA in the presence of chemical substance/The level of expressed mRNA in the absence of chemical substance” value (yeast gene YOR273C) of the same compound?
**A.** Its value is 1.0.

**Q.** What about the “The level of expressed mRNA in the presence of chemical substance/The level of expressed mRNA in the absence of chemical substance” value (yeast gene YOR316C) of the same compound?
**A.** The value was 2.5.

**Q.** And the “The level of expressed mRNA in the presence of chemical substance/The level of expressed mRNA in the absence of chemical substance” value (yeast gene YOR328W)?
**A.** The value was 1.0.

**Q.** What about the “The level of expressed mRNA in the presence of chemical substance/The level of expressed mRNA in the absence of chemical substance” value (yeast gene YOR332W) of the same compound?
**A.** Its value is 1.0.

**Q.** And the “The level of expressed mRNA in the presence of chemical substance/The level of expressed mRNA in the absence of chemical substance” value (yeast gene YOR348C)?
**A.** The value was 0.7.

**Q.** And the “The level of expressed mRNA in the presence of chemical substance/The level of expressed mRNA in the absence of chemical substance” value (yeast gene YPL036W)?
**A.** Its value is 0.8.

**Q.** What about the “The level of expressed mRNA in the presence of chemical substance/The level of expressed mRNA in the absence of chemical substance” value (yeast gene YPL134C) of the same compound?
**A.** Its value is 1.0.

**Q.** And the “The level of expressed mRNA in the presence of chemical substance/The level of expressed mRNA in the absence of chemical substance” value (yeast gene YPL271W)?
**A.** The value was 3.2.

**Q.** What about the “The level of expressed mRNA in the presence of chemical substance/The level of expressed mRNA in the absence of chemical substance” value (yeast gene YPR192W) of the same compound?
**A.** The value was 1.1.

**Q.** And the “The level of expressed mRNA in the presence of chemical substance/The level of expressed mRNA in the absence of chemical substance” value (yeast gene YPR194C)?
**A.** Its value is 1.4.

From US8192962B2, “Processes for detecting toxic substances” (Daikin Industries, Ltd., priority 2001, dated 2012)
